{
  "source": "patent US20110123555A1",
  "about": "“PREPARATION AND UTILITY OF CCR5 INHIBITORS” (AUSPEX PHARMACEUTICALS, INC., priority 2006, published 2011)",
  "origin": "cited, not measured here",
  "test_system": "200 clinically-derived pseudoviruses",
  "details": "half of which are derived from viruses resistant to existing drug classes",
  "data": [
    {"smiles": "Cc1nnc(C(C)C)n1C1CC2CCC(C1)N2CCC(NC(=O)C1CCC(F)(F)CC1)c1ccccc1", "note": "(stereo not shown) [Maraviroc]", "values": [
      {"measurement": "active in vitro against clinically-derived pseudoviruses", "result": "active"}
    ]}
  ]
}
